ChEMBL document CHEMBL1149308, “4-{(2R)-[3-Aminopropionylamido]-3-(2,4-dichlorophenyl)propionyl}-1-{2-[(2-thienyl)ethylaminomethyl]phenyl}piperazine as a potent and selective melanocortin-4 receptor antagonist--design, synthesis, and characterization” (J Med Chem, 2004)
One block for each molecule: values may come before it. Calls of active or inactive are those of the source. The calls are words filed in the database; no cut-off is given here.

What was measured:
[1] = biological target: T1, Melanocortin receptor 4 (Homo sapiens, UniProt P32245)
T1 sequence (P32245 whole entry): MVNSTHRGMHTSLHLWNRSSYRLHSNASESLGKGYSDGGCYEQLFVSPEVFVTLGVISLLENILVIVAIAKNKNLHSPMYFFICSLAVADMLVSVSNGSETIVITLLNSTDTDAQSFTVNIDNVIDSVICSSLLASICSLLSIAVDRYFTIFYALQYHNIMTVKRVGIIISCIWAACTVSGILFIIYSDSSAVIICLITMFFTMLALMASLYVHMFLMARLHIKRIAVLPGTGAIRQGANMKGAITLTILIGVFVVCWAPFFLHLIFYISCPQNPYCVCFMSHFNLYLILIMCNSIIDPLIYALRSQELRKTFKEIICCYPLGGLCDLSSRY
Description: Agonist activity at human MC4 receptor expressed in HEK293 cells assessed as stimulation of cAMP production

[2] = biological target: T2, Melanocyte-stimulating hormone receptor (Homo sapiens, UniProt Q01726); test: Inhibition of human MC1 receptor expressed in HEK293 cells at 10 uM; type: cell-based
Target sequence in this assay (Q01726 whole entry, looked up): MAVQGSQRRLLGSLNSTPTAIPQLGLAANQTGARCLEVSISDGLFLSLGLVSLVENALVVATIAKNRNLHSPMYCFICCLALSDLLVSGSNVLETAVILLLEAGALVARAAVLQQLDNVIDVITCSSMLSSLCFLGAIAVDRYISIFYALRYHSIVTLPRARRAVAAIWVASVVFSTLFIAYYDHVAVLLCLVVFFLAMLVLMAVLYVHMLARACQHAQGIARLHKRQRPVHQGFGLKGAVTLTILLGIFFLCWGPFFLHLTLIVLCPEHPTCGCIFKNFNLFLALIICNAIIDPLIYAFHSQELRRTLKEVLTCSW

[3] = biological target: T3, Melanocortin receptor 3 (Homo sapiens, UniProt P41968); test: Inhibition of human MC3 receptor expressed in HEK293 cells at 10 uM; type: cell-based
T3 sequence (P41968 whole entry): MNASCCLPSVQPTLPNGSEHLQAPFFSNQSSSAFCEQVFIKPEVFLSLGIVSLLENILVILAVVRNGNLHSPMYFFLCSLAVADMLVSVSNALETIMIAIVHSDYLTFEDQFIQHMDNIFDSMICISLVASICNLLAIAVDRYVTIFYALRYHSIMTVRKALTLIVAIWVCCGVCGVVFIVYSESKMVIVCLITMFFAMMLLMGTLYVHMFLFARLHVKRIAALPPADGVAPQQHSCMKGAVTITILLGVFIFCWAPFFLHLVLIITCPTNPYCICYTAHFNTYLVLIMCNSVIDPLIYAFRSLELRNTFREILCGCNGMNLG

[4] = biological target: T1, Melanocortin receptor 4; test: Antagonist activity at human MC4 receptor expressed in HEK293 cells assessed as inhibition of alpha-MSH-stimulated cAMP production; type: functional, cell-based; conditions: read-out: pA2 (converted)
[5] = biological target: T2, Melanocyte-stimulating hormone receptor; type: cell-based, HEK293
Target sequence in this assay (Q01726 whole entry): as the sequence (Q01726 whole entry, looked up) above

[6] = biological target: T3, Melanocortin receptor 3; type: cell-based, HEK293
[7] = biological target: Melanocortin receptor 5 (Homo sapiens, UniProt P33032); type: cell-based, HEK293
Sequence of Melanocortin receptor 5 (P33032 whole entry): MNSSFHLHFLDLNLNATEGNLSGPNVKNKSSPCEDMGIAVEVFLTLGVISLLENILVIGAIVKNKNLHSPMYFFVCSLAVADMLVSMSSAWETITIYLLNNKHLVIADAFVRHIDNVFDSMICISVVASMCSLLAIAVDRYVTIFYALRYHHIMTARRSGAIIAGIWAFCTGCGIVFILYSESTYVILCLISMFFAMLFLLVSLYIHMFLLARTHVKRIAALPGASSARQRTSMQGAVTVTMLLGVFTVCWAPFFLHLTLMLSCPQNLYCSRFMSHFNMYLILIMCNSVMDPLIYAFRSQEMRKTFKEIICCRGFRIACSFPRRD

[8] = Distribution coefficient, log D at pH 7.4; type: physicochemical; conditions: octanol/water
[9] = Clearance in rat at 10 mg/kg, iv; type: ADME, organism-based; parameters: dose 10 mg/kg, route intravenous; conditions: in vivo
[10] = Volume of distribution in rat at 10 mg/kg, iv; type: ADME, organism-based; parameters: dose 10 mg/kg, route intravenous; conditions: in vivo, read-out: Vdss
[11] = Half life in rat at 10 mg/kg, iv; type: ADME, organism-based; parameters: dose 10 mg/kg, route intravenous; conditions: in vivo
[12] = Concentration in rat brain at 2 mg/kg, iv after […]; type: ADME, organism-based; parameters: dose 2 mg/kg, route intravenous; conditions: read-out: Drug uptake
[13] = Plasma concentration in rat at 2 mg/kg, iv after […]; type: ADME, organism-based; parameters: dose 2 mg/kg, route intravenous
[14] = Ratio of drug level in brain to plasma of rat at 2 mg/kg, iv after […]; type: ADME, organism-based; parameters: dose 2 mg/kg, route intravenous
[15] = Tmax in rat at 10 mg/kg, po; type: ADME, organism-based; parameters: dose 10 mg/kg, route oral; conditions: in vivo
[16] = Cmax in rat at 10 mg/kg, po; type: ADME, organism-based; parameters: dose 10 mg/kg, route oral; conditions: in vivo
[17] = AUC in rat at 10 mg/kg, po; type: ADME, organism-based; parameters: dose 10 mg/kg, route oral; conditions: plasma
[18] = Intrinsic clearance in human liver microsomes; type: ADME, Microsome
[19] = Oral bioavailability in rat at 10 mg/kg, po; type: ADME, organism-based; conditions: in vivo
[20] = biological target: T1, Melanocortin receptor 4; remark: listed apart in the source
Description: (§1) Displacement of [125]NDP-MSH from human MC4 receptor expressed in HEK293 cells

[21] = biological target: T1, Melanocortin receptor 4; conditions: HEK293
Description: as §1

[22] = biological target: T1, Melanocortin receptor 4; test: biochemical
Description: as §1

SMILES: NCC(=O)N[C@H](Cc1ccc(Cl)cc1)C(=O)N1CCN(c2ccccc2CNCCc2cccs2)CC1
EC50 [1]: 580 nM (agonist)

SMILES: NCCC(=O)N[C@H](Cc1ccc(Cl)cc1Cl)C(=O)N1CCN(c2ccccc2CNCCc2cccs2)CC1
Kb [4]: 12.6 nM (antagonist)
Ki [5]: 4200 nM (antagonist)
Ki [6]: 640 nM (antagonist)
Ki [7]: 280 nM (antagonist)
logD [8]: 1.1
clearance [9]: 24 mL/min/kg
Vd [10]: 9.5 L/kg
half-life [11]: 4.6 h
concentration at […] [12]: 75 ng/g
concentration at […] [13]: 71 ng/mL
Kp at […] [14]: 1
Tmax [15]: 0.5 h
Cmax [16]: 18 ng/mL
AUC [17]: 51 ng·h/mL
CLint scaled [18]: 23 mL/min/kg
bioavailability [19]: 1%
Ki [20]: 1.8 nM (antagonist)

SMILES: CS(=O)(=O)N1CC2(CCN(C(=O)[C@@H](Cc3ccccc3)NC(=O)[C@@H](N)Cc3c[nH]cn3)CC2)c2ccccc21
Activity [21]: inactive

Next, values leading:

inhibition [2]: 27%
inhibition [3]: 34%
EC50 [1]: 890 nM (agonist)
SMILES: NCc1ccccc1N1CCN(C(=O)[C@@H](Cc2ccc(Cl)cc2)NC(=O)[C@H]2Cc3ccccc3CN2)CC1

Ki [22]: 1.2 nM (antagonist)
SMILES: Cn1nnc(CC2(C3CCCCC3)CCN(C(=O)[C@@H](Cc3ccc(Cl)cc3)NC(=O)[C@H]3Cc4ccccc4CN3)CC2)n1

Ki [6]: 1400 nM (antagonist)
SMILES: NCCC(=O)N[C@H](Cc1ccc(Cl)cc1)C(=O)N1CCN(c2ccccc2CNCCc2cccs2)CC1
